Test: Inhibition of Src-transformed fibroblast cell proliferation

COc1cc(Nc2c(C#N)cnc3cc(OC)c(OC)cc23)c(C)cc1Cl
IC50: 2400 nM
